Source: PubChem BioAssay AID2640 (Southern Research Specialized Biocontainment Screening …, 2010)
Calls of active or inactive are those of the source.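 How the source made its calls: active means wild-type drop in polymyxin IC50 at top compound dose over twice that in the PhoP-lacking mutant; inactive means the rest.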

Tests used:
[1] = compound effect on Typhimurium polymyxin resistance – wild type vs phoP- strains, OD600 (AID 2640); conditions: S. Typhimurium polymyxin resistance, OD600 growth, 24 h; for IC50 shift difference / IC50 shift: measured here: polymyxin IC50 shift, at 150 µM; for IC50 shift difference: WT minus phoP-
[2] = system: S. Typhimurium polymyxin resistance, OD600 growth, 24 h; experiment: as above
[3] = WT strain, stronger effect = higher value
[4] = phoP- strain, stronger effect = lower value
[5] = WT polymyxin IC50 at 150 uM, stronger effect = lower value
[6] = phoP- polymyxin IC50 at 150 uM, stronger effect = lower value

Compound	IC50 shift difference ([1]; stronger effect = higher value)	IC50 shift [1, 3]	IC50 shift [1, 4]	IC50 [2]	IC50 [2, 5]	IC50 [2, 6]	outcome [1]
CCn1cc(C(=O)O)c(=O)c2cc(F)c(N3CCN(C(=S)NC(=O)c4ccccc4Cl)CC3)cc21	10.3	9.6	-0.66	20 µM	0.138 µM	0.706 µM	
O=C1C2=C(Nc3ccccc3SC2c2ccco2)c2ccccc21 (centres undefined)	14.6	18.2	3.6	30 µM	0.04 µM		
S=C(NCc1ccc(Cl)cc1)Nc1ccncc1	20.4	3.93	-16.4	30 µM	3.59 µM	24 µM	
Cc1ccc(Nc2cc(C)c3c(O)cccc3n2)cc1C	2.63	2.54	-0.09		2.25 µM	0.088 µM	inactive
COc1c(N2CCN(C(=S)NCc3ccccc3)C(C)C2)c(F)cc2c(=O)c(C(=O)O)cn(C3CC3)c12 (centres undefined)	6.39	9.16	2.76	10 µM		0.677 µM	
O=C(Nc1ccc(Cl)cc1)N1CCCN(Cc2ccccc2F)C1	27.6	5.14	-22.4	30 µM	0.62 µM	26.9 µM	
